Tests used:
[1] = Superoxide anion chemiluminescent assay (hypoxanthine/xanthine oxidase, Lumimax kit); assay type: biochemical; details: means of 6 independent assays
Text: (§1) The superoxide anion has been measured by a chemiluminescent assay based on the hypoxanthine (HPX)/xanthine oxidase (XOD) reaction using the Lumimax Superoxide Anion Detection Kit (Stratagene, La Jolla, Calif., USA) and following the manufacturer's instructions. Hydroxyl radical scavenger activity has been measured by means of the Fenton reaction for the production of hydroxyl radicals and chemiluminescent dosage (using a Victor^3 chemiluminometer, Wallac, Finland) with luminol. Peroxynitrite ions have been determined by means of dosage with a spontaneous generator of peroxynitrites (3-morpholinosidnonimine hydrochloride; SIN-1) and a stable reagent for the nitroxyl ions (2-(4-carboxyphenyl)-4,4,5,5-tetramethylimidazoline-1-oxyl-3-oxide potassium salt PTIO spin trap) then dosed by means of electron spin resonance (ESR) using a Nippon Denshi JES-FR30. Lipid peroxidation has been generated using Fe^2+ induced-oxygen reactive species, and detected using thiobarbituric acid in accordance with Buege, J A & Aust, S D: Microsomal lipid peroxidation (Methods Enzymol.
(§2) The results are expressed as the concentration inhibiting 50% of activity (IC50), means of 6 independent assays.

[2] = Hydroxyl radical scavenger activity (Fenton reaction, luminol chemiluminescence); assay type: biochemical; details: means of 6 independent assays
Text: as §1, with “Ajuga reptans Extracts 1 and 2, prepared as described in examples 1 and 2, and isoteupolioside have been used to assess in vitro antioxidant action with specific oxygen radical generating systems such as the superoxide anion (O2^−), the hydroxyl radical (HO^−), the peroxynitrite radical (ONOO^−) and the inhibition of lipid peroxidation. The” for “The”
The Extract 1 and the Extract 2 set forth in Table 4 are derived from Ajuga reptans cell cultures comprising the phenylpropanoids at 90% and 54%, respectively. The results are expressed as the concentration inhibiting 50% of activity (IC50), means of 6 independent assays.

[3] = Peroxynitrite scavenging (SIN-1, PTIO spin trap, ESR); assay type: biochemical; details: means of 6 independent assays
Text: as §1, §2

3T3 fibroblasts = assay: BSO-induced oxidative death of 3T3 fibroblasts (MTT); assay type: cell-based, BALB/c mouse; details: 1 mM; BSO 200 μM, 24 hours
A549 cells (ATCC-CCL185) = assay: BSO-induced oxidative stress, ROS by DCF fluorimetry in A549 cells; assay type: cell-based, human; details: with BSO, control without BSO = 100
Method: 10×10^5 A549 cells (ATCC-CCL185) have been seeded into wells with 3 ml of DMEM/F12K HAM medium (Sigma-Aldrich) with 10% FCS and incubated at 37° C. in a 5% CO2, water vapour saturated atmosphere. After 24 hours the culture medium is replaced by medium supplemented with BSO, which is left in contact with the cells for 20 hours. The medium is once again replaced with medium containing BSO in the presence or absence of the test compound. After 4 hours, quantitative measurement of the ROSs (hydroxyl radicals) is performed by washing the cells with phosphate buffer and then incubating them with 30 μM DCF-DA in buffer solution. At the end of a 15 minute incubation, excess DCF-DA is removed from the cells by washing, prior to measuring the fluorescence emitted.
Antioxidant activity measurements are performed using a (Hitachi F3010) spectrophotometer with excitation at 488 nm and measuring emission at 525 nm, and values are expressed in pmoles, by extrapolation from the calibration curve constructed using known quantities of DCF, and in relation to total cellular protein. Values are thus expressed in % ages with respect to the ROS content of the cells not subjected to treatment with BSO (control) to which are assigned a value of 100.
The Extracts 1 and 2, Teupolioside and Ascorbic Acid were solubilized in phosphate buffer 10 mM at pH 7.4, whereas trolox was solubilized in 0.1% of dimethylsulphoxide and culture medium.

tyrosinase [4] = assay: Tyrosinase inhibition, conversion of L-DOPA to DOPAquinone; assay type: biochemical; details: 100 μg/ml
Text: (§3) The enzyme tyrosinase catalyses the reactions leading to melanin biosynthesis from tyrosine. […] Substances inhibiting tyrosinase activity produce a clearing/bleaching effect on the skin, since they block melanin synthesis. The method used to determine the inhibition of tyrosinase activity in the oxidation reaction of L-tyrosine to L-DOPA is that described in Kim et al. […] Biol. Pharm. […] The method applied for determination of the inhibition of tyrosinase activity in the conversion of L-DOPA to DOPAquinone is that described in Masamoto et al. (Mushroom tyrosinase inhibitory activity of esculetin isolated from seeds of Euphorbia lathyris L. Biosci. Biotechnol. Biochem., 67(3), 631-634, 2003).

tyrosinase [5] = assay: Tyrosinase inhibition, oxidation of L-tyrosine to L-DOPA; assay type: biochemical; details: 250 μg/ml
Text: as §3

O=C1c2c(O)cccc2C([C@@H]2O[C@H](CO)[C@@H](O)[C@H](O)[C@H]2O)c2cc(CO)cc(O)c21 (stereo partly shown) [Aloin, reference compound]
Superoxide radical (IC50) [1]: 7.6 µg/mL | Hydroxyl radial (IC50) [2]: 2.9 µg/mL | Peroxynitrite radical (IC50) [3]: 12.3 µg/mL

O=C1O[C@H]([C@@H](O)CO)C(O)=C1O [Ascorbic acid, reference compound]
% survived cells (3T3 fibroblasts): 72.3% | % ROS in picomoles (A549 cells (ATCC-CCL185); 1 mM): 130 ± 10 %

O=c1cc(CO)occ1O [Kojic acid, reference compound]
Test LDOPA-DOPAquinone inhibitory activity (%) (tyrosinase [4]): 35% | Test L-tyrosine-DOPA inhibitory activity (%) (tyrosinase [5]): 94.1%

Oc1cccc(O)c1 [Resorcinol, reference compound]
Test LDOPA-DOPAquinone inhibitory activity (%) (tyrosinase [4]): 0% | Test L-tyrosine-DOPA inhibitory activity (%) (tyrosinase [5]): 56.9%

Cc1c(C)c2c(c(C)c1O)CCC(C)(C(=O)O)O2 (stereo not shown) [Trolox]
% ROS in picomoles (A549 cells (ATCC-CCL185); 20 μM): 125 ± 8 %

— US9623063B2, “Extracts from Ajuga reptans cell lines, their preparation and use” (I.R.B. ISTITUTO DI RICERCHE BIOTECNOLOGICHE S.r.l., priority 2005, dated 2017)
